Experimental data published in ChEMBL document CHEMBL1201862, “PubChem BioAssay data set” (2004).
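Cells were grown in 96-well plates and exposed to each compound for 48 hours at five concentrations; endpoints were interpolated linearly between bracketing concentrations, or set to the highest concentration if not reached. Here, GI50 denotes the concentration required for 50% inhibition of growth.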 Calls of active or inactive are those of the source. Rule as the data show it: active = GI50 up to about 1.1 µM and inactive = higher.

What was measured:
Assay in all cases: inhibition of tumour cell growth, NCI panel, 48 h
[1] = test system: 786-0
[2] = test system: A498
[3] = test system: A549
[4] = test system: ACHN
[5] = test system: BT-549
[6] = test system: CAKI-1
[7] = test system: DU-145
[8] = test system: EKVX
[9] = test system: HCC 2998
[10] = test system: HCT-116
[11] = test system: HCT-15
[12] = test system: HOP-62
[13] = test system: HT-29
[14] = test system: Hs-578T
[15] = test system: IGROV-1
[16] = test system: K562
[17] = test system: KM12
[18] = test system: LOX IMVI
[19] = test system: M14
[20] = test system: MCF7
[21] = test system: MDA-MB-231
[22] = test system: MDA-MB-435
[23] = test system: MDA-N
[24] = test system: Malme-3M
[25] = test system: NCI-H23
[26] = test system: NCI-H460
[27] = test system: NCI-H522
[28] = test system: NCI/ADR-RES
[29] = test system: OVCAR-3
[30] = test system: OVCAR-4
[31] = test system: OVCAR-5
[32] = test system: PC-3
[33] = test system: RPMI-8226
[34] = test system: RXF 393
[35] = test system: SF-295
[36] = test system: SK-MEL-28
[37] = test system: SK-MEL-2
[38] = test system: SK-OV-3
[39] = test system: SN12C
[40] = test system: SNB-19
[41] = test system: SNB-75
[42] = test system: SR
[43] = test system: SW-620
[44] = test system: T47D
[45] = test system: TK-10
[46] = test system: U-251
[47] = test system: UACC-257
[48] = test system: UACC-62
[49] = test system: UO-31
[50] = test system: CCRF-CEM
[51] = test system: COLO 205
[52] = test system: HL-60
[53] = test system: MOLT-4
[54] = test system: NCI-H226
[55] = test system: OVCAR-8
[56] = test system: SF-268
[57] = test system: SF-539
[58] = test system: SK-MEL-5
[59] = test system: HOP-92

## O=C(O)C1C2CCC(O2)C1C(=O)Nc1cccc2cccnc12 (centres undefined)
[1]
  GI50: > 100 µM (inactive)
[2]
  GI50: > 100 µM (inactive)
[3]
  GI50: > 100 µM (inactive)
[4]
  GI50: > 100 µM (inactive)
[5]
  GI50: > 100 µM (inactive)
[6]
  GI50: > 100 µM (inactive)
[7]
  GI50: > 100 µM (inactive)
[8]
  GI50: > 100 µM (inactive)
[9]
  GI50: 31.1 µM (inactive)
[10]
  GI50: > 100 µM (inactive)
[11]
  GI50: > 100 µM
[12]
  GI50: > 100 µM (inactive)
[13]
  GI50: > 100 µM (inactive)
[14]
  GI50: 93.5 µM (inactive)
[15]
  GI50: > 100 µM (inactive)
[16]
  GI50: > 100 µM (inactive)
[17]
  GI50: > 100 µM (inactive)
[18]
  GI50: > 100 µM (inactive)
[19]
  GI50: > 100 µM (inactive)
[20]
  GI50: > 100 µM (inactive)
[21]
  GI50: > 100 µM (inactive)
[22]
  GI50: > 100 µM (inactive)
[23]
  GI50: > 100 µM (inactive)
[24]
  GI50: > 100 µM (inactive)
[25]
  GI50: > 100 µM (inactive)
[26]
  GI50: 55.5 µM (inactive)
[27]
  GI50: 88.5 µM (inactive)
[28]
  GI50: > 100 µM (inactive)
[29]
  GI50: > 100 µM (inactive)
[30]
  GI50: > 100 µM (inactive)
[31]
  GI50: > 100 µM (inactive)
[32]
  GI50: > 100 µM (inactive)
[33]
  GI50: > 100 µM (inactive)
[34]
  GI50: > 100 µM (inactive)
[35]
  GI50: > 100 µM (inactive)
[36]
  GI50: > 100 µM (inactive)
[37]
  GI50: > 100 µM (inactive)
[38]
  GI50: > 100 µM (inactive)
[39]
  GI50: > 100 µM (inactive)
[40]
  GI50: > 100 µM (inactive)
[41]
  GI50: > 100 µM (inactive)
[42]
  GI50: > 100 µM (inactive)
[43]
  GI50: > 100 µM (inactive)
[44]
  GI50: > 100 µM (inactive)
[45]
  GI50: > 100 µM (inactive)
[46]
  GI50: > 100 µM (inactive)
[47]
  GI50: > 100 µM (inactive)
[48]
  GI50: > 100 µM (inactive)
[49]
  GI50: > 100 µM (inactive)

## COC(=O)C1(Cc2ccccc2)Cc2ccccc2C1O (centres undefined)
[1]
  GI50: > 100 µM (inactive)
[2]
  GI50: > 100 µM (inactive)
[3]
  GI50: 87.5 µM (inactive)
[4]
  GI50: > 100 µM (inactive)
[5]
  GI50: > 100 µM (inactive)
[6]
  GI50: > 100 µM (inactive)
[50]
  GI50: > 100 µM (inactive)
[51]
  GI50: > 100 µM (inactive)
[7]
  GI50: > 100 µM (inactive)
[8]
  GI50: 65 µM (inactive)
[9]
  GI50: > 100 µM (inactive)
[10]
  GI50: > 100 µM (inactive)
[11]
  GI50: > 100 µM
[52]
  GI50: > 100 µM (inactive)
[12]
  GI50: > 100 µM (inactive)
[13]
  GI50: > 100 µM (inactive)
[14]
  GI50: 55.1 µM (inactive)
[15]
  GI50: > 100 µM (inactive)
[16]
  GI50: > 100 µM (inactive)
[17]
  GI50: > 100 µM (inactive)
[18]
  GI50: > 100 µM (inactive)
[20]
  GI50: > 100 µM (inactive)
[21]
  GI50: > 100 µM (inactive)
[22]
  GI50: > 100 µM (inactive)
[23]
  GI50: > 100 µM (inactive)
[53]
  GI50: 39.4 µM (inactive)
[24]
  GI50: > 100 µM (inactive)
[54]
  GI50: > 100 µM (inactive)
[25]
  GI50: 63 µM (inactive)
[26]
  GI50: > 100 µM (inactive)
[27]
  GI50: 56.8 µM (inactive)
[28]
  GI50: > 100 µM (inactive)
[29]
  GI50: > 100 µM (inactive)
[30]
  GI50: 29.8 µM (inactive)
[31]
  GI50: > 100 µM (inactive)
[55]
  GI50: > 100 µM (inactive)
[32]
  GI50: > 100 µM (inactive)
[33]
  GI50: > 100 µM (inactive)
[34]
  GI50: 50.2 µM (inactive)
[56]
  GI50: > 100 µM (inactive)
[35]
  GI50: > 100 µM (inactive)
[57]
  GI50: > 100 µM (inactive)
[36]
  GI50: > 100 µM (inactive)
[58]
  GI50: 37.3 µM (inactive)
[38]
  GI50: > 100 µM (inactive)
[39]
  GI50: > 100 µM (inactive)
[41]
  GI50: 87.7 µM (inactive)
[42]
  GI50: 92.9 µM (inactive)
[43]
  GI50: > 100 µM (inactive)
[44]
  GI50: 43.3 µM (inactive)
[45]
  GI50: 95.9 µM (inactive)
[46]
  GI50: > 100 µM (inactive)
[47]
  GI50: > 100 µM (inactive)
[48]
  GI50: > 100 µM (inactive)
[49]
  GI50: 62.4 µM (inactive)

## CCOC(=O)C1(C(=O)OCC)CC(=O)[C@@]2(C1)OCC[C@H]1OC(=O)C[C@H]12
[1]
  GI50: > 100 µM (inactive)
[2]
  GI50: > 100 µM (inactive)
[3]
  GI50: > 100 µM (inactive)
[4]
  GI50: > 100 µM (inactive)
[5]
  GI50: > 100 µM (inactive)
[6]
  GI50: > 100 µM (inactive)
[50]
  GI50: > 100 µM (inactive)
[51]
  GI50: > 100 µM (inactive)
[7]
  GI50: > 100 µM (inactive)
[8]
  GI50: > 100 µM (inactive)
[9]
  GI50: > 100 µM (inactive)
[10]
  GI50: > 100 µM (inactive)
[11]
  GI50: > 100 µM
[52]
  GI50: > 100 µM (inactive)
[12]
  GI50: > 100 µM (inactive)
[59]
  GI50: > 100 µM (inactive)
[13]
  GI50: > 100 µM (inactive)
[14]
  GI50: > 100 µM (inactive)
[15]
  GI50: > 100 µM (inactive)
[17]
  GI50: > 100 µM (inactive)
[18]
  GI50: > 100 µM (inactive)
[19]
  GI50: > 100 µM (inactive)
[20]
  GI50: > 100 µM (inactive)
[21]
  GI50: > 100 µM (inactive)
[22]
  GI50: > 100 µM (inactive)
[23]
  GI50: > 100 µM (inactive)
[53]
  GI50: > 100 µM (inactive)
[24]
  GI50: > 100 µM (inactive)
[25]
  GI50: > 100 µM (inactive)
[26]
  GI50: > 100 µM (inactive)
[27]
  GI50: > 100 µM (inactive)
[28]
  GI50: > 100 µM (inactive)
[29]
  GI50: > 100 µM (inactive)
[30]
  GI50: > 100 µM (inactive)
[31]
  GI50: > 100 µM (inactive)
[55]
  GI50: > 100 µM (inactive)
[32]
  GI50: > 100 µM (inactive)
[33]
  GI50: > 100 µM (inactive)
[56]
  GI50: > 100 µM (inactive)
[35]
  GI50: > 100 µM (inactive)
[57]
  GI50: > 100 µM (inactive)
[36]
  GI50: > 100 µM (inactive)
[37]
  GI50: > 100 µM (inactive)
[58]
  GI50: > 100 µM (inactive)
[39]
  GI50: > 100 µM (inactive)
[40]
  GI50: > 100 µM (inactive)
[41]
  GI50: > 100 µM (inactive)
[42]
  GI50: > 100 µM (inactive)
[43]
  GI50: > 100 µM (inactive)
[44]
  GI50: > 100 µM (inactive)
[45]
  GI50: > 100 µM (inactive)
[46]
  GI50: > 100 µM (inactive)
[47]
  GI50: > 100 µM (inactive)
[48]
  GI50: > 100 µM (inactive)
[49]
  GI50: > 100 µM (inactive)
